Test results taken from patent US10766869B2, “Triazoles for the treatment of demyelinating dieases” (Vertex Pharmaceuticals Incorporated, priority 2015, dated 2020).
Read-outs that look alike come from different tables or passages of the source.

System: primary rat mixed cortical cells
Experiment: In vitro myelination assay (MBP positive myelin strands, fold myelin pixels above background)
Assay type: cell-based
Settings: Rattus norvegicus; for fold induction at 1 µM: 1.0 μM compound; for fold induction at 10 µM: 10.0 μM compound
Method in brief: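 Mixed cortical culture, P1 rat, 87,500-95,000 cells/well; compound present from seeding, refreshed days 6 and 10; 14 d, 37 °C, 5% CO2. Day 14: PFA fix, anti-MBP + Hoechst. Read-out: fold MBP myelin pixels over untreated, tested at 1.0 and 10.0 μM.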

[1] = read-out: Fold myelin pixels above background relative to baseline of no added compound
[2] = relative to baseline of no added compound, read-out: Fold myelin pixels above background, 1.0 μM
[3] = relative to baseline of no added compound, read-out: Fold myelin pixels above background, 10.0 μM
[4] = relative to baseline of no added compound, read-out: Fold myelin pixels above background

Compound	fold induction at 1 µM [1]	fold induction at 10 µM [1]	fold induction at 1 µM [2]	fold induction at 10 µM [3]	further results
Cc1cc(Nc2ncn(-c3cc(F)cc(F)c3)n2)cc(NC2CN(C3COC3)C2)c1 [Compound 881, N3-[1-(3,5-difluorophenyl)-1,2,4-triazol-3-yl]-5-methyl-N1-[1-(oxetan-3-yl)azetidin-3-yl]benzene-1,3-diamine]	10 to 100	≤ 1	–	–	–
c1ccc(-n2cnc(Nc3cc(C4CC4)cc(N4CCOCC4)c3)n2)cc1 [Compound 305, N-(3-cyclopropyl-5-morpholino-phenyl)-1-phenyl-1,2,4-triazol-3-amine]	–	–	100 to 1000	≤ 1	–
Cc1ccc(-n2cnc(Nc3cc(C)cc(N4CCCC4)c3)n2)cc1 [Compound 372, N-(3-methyl-5-pyrrolidin-1-yl-phenyl)-1-(p-tolyl)-1,2,4-triazol-3-amine]	–	–	1 to 10	10 to 100	–
Cc1cc(Nc2ncn(-c3cc(F)cc(F)c3)n2)cc(C2CCCN(C3COC3)C2)c1 (stereo not drawn) [Compound 408, 1-(3,5-difluorophenyl)-N-[3-methyl-5-[1-(oxetan-3-yl)-3-piperidyl]phenyl]-1,2,4-triazol-3-amine]	–	–	–	–	fold induction at 1 µM [4]: 100 to 1000; fold induction at 10 µM [4]: 10 to 100
Cc1cc(NCC2CN(C(CO)CO)C2)cc(Nc2ncn(-c3cc(F)cc(F)c3)n2)c1 [Compound 946, 2-[3-[[3-[[1-(3,5-difluorophenyl)-1,2,4-triazol-3-yl]amino]-5-methyl-anilino]methyl]azetidin-1-yl]propane-1,3-diol]	≤ 1	≤ 1	–	–	–
Fc1ccc(-n2cnc(Nc3cc(C4CCOCC4)nc(C4CC4)c3)n2)cc1F [Compound 150, 2-cyclopropyl-N-(1-(3,4-difluorophenyl)-1H-1,2,4-triazol-3-yl)-6-(tetrahydro-2H-pyran-4-yl)pyridin-4-amine]	–	–	1000 to 10000	≤ 1	–
Cc1cc(Nc2ncn(-c3cncc(C)n3)n2)cc(N2CCN(C3COC3)CC2)c1 [Compound 271, N-[3-methyl-5-[4-(oxetan-3-yl)piperazin-1-yl]phenyl]-1-(6-methylpyrazin-2-yl)-1,2,4-triazol-3-amine]	–	–	≤ 1	≤ 1	–
Cc1cc(N2CCOCC2)cc(Nc2ncn(-c3ccccn3)n2)c1F [Compound 307, N-(2-fluoro-3-methyl-5-morpholino-phenyl)-1-(2-pyridyl)-1,2,4-triazol-3-amine]	–	–	1 to 10	10 to 100	–
COc1ccc(-n2cnc(Nc3cc(Cl)nc(N4CCOCC4)c3)n2)cc1OC [Compound 345, 2-chloro-N-[1-(3,4-dimethoxyphenyl)-1,2,4-triazol-3-yl]-6-morpholino-pyridin-4-amine]	–	–	10 to 100	1 to 10	–
COc1cc(Nc2ncn(-c3cccc(F)c3)n2)cc(N2CCN(C3COC3)CC2)c1 [Compound 258, 1-(3-fluorophenyl)-N-[3-methoxy-5-[4-(oxetan-3-yl)piperazin-1-yl]phenyl]-1,2,4-triazol-3-amine]	–	–	100 to 1000	1 to 10	–
Cc1cc(Nc2ncn(-c3ccccc3)n2)cc(N2CC(C)OC(C)C2)c1 (stereo not drawn) [Compound 306, N-[3-(2,6-dimethylmorpholin-4-yl)-5-methyl-phenyl]-1-phenyl-1,2,4-triazol-3-amine]	–	–	≤ 1	≤ 1	–
Cc1cc(Nc2ncn(-c3cc(F)cc(F)n3)n2)cc(N2CCN(C3COC3)CC2)c1 [Compound 329, 1-(4,6-difluoro-2-pyridyl)-N-[3-methyl-5-[4-(oxetan-3-yl)piperazin-1-yl]phenyl]-1,2,4-triazol-3-amine]	–	–	1 to 10	10 to 100	–
Cc1cc(Nc2ncn(-c3cc(F)cc(F)c3)n2)cc(N2C[C@H]3C[C@@H]2CO3)c1 [Compound 628, 1-(3,5-difluorophenyl)-N-[3-methyl-5-[(1R,4R)-2-oxa-5-azabicyclo[2.2.1]heptan-5-yl]phenyl]-1,2,4-triazol-3-amine]	–	–	–	–	fold induction at 1 µM [4]: 10 to 100; fold induction at 10 µM [4]: 1 to 10
[2H]C1([2H])N(c2cc(C)cc(Nc3ncn(-c4cc(F)cc(F)c4)n3)c2)C([2H])([2H])C([2H])([2H])N(C2CCOC2)C1([2H])[2H] (stereo not drawn) [Compound 1042, 1-(3,5-difluorophenyl)-N-[3-methyl-5-(2,2,3,3,5,5,6,6-octadeuterio-4-tetrahydrofuran-3-yl-piperazin-1-yl)phenyl]-1,2,4-triazol-3-amine]	10 to 100	≤ 1	–	–	–
Cc1cc(NC(=O)NC2CCC2)cc(Nc2ncn(-c3ccccc3)n2)c1 [Compound 910, 1-cyclobutyl-3-[3-methyl-5-[(1-phenyl-1,2,4-triazol-3-yl)amino]phenyl]urea]	1 to 10	10 to 100	–	–	–
[2H]C1([2H])N(c2cc(Nc3ncn(-c4cc(F)cc(F)c4)n3)cc(C(F)F)c2)C([2H])([2H])C([2H])([2H])C([2H])([2H])C1([2H])[2H] [Compound 876, N-[3-(2,2,3,3,4,4,5,5,6,6-decadeuterio-1-piperidyl)-5-(difluoromethyl)phenyl]-1-(3,5-difluorophenyl)-1,2,4-triazol-3-amine]	10 to 100	10 to 100	–	–	–
Fc1cc(F)cc(-n2cnc(Nc3cc(C(F)F)cc(N4CCN(C5COC5)CC4)c3)n2)c1 [Compound 82, N-[3-(difluoromethyl)-5-[4-(oxetan-3-yl)piperazin-1-yl]phenyl]-1-(3,5-difluorophenyl)-1,2,4-triazol-3-amine]	–	–	1000 to 10000	100 to 1000	–
CN1CCN(c2cc(Nc3ncn(-c4ccccc4)n3)cc(Cl)n2)CC1 [Compound 367, 2-chloro-6-(4-methylpiperazin-1-yl)-N-(1-phenyl-1,2,4-triazol-3-yl)pyridin-4-amine]	–	–	100 to 1000	100 to 1000	–
Cc1cc(Nc2ncn(-c3cc(F)cc(F)c3)n2)cc(N2CCN(C(=O)N3CCOCC3)CC2)c1 [Compound 582, [4-[3-[[1-(3,5-difluorophenyl)-1,2,4-triazol-3-yl]amino]-5-methyl-phenyl]piperazin-1-yl]-morpholino-methanone]	–	–	–	–	fold induction at 1 µM [4]: 1 to 10; fold induction at 10 µM [4]: 10 to 100
Fc1ccc(-n2cnc(Nc3cc(C(F)(F)F)cc(N4CCOCC4)n3)n2)cc1F [Compound 770, N-[1-(3,4-difluorophenyl)-1,2,4-triazol-3-yl]-6-morpholino-4-(trifluoromethyl)pyridin-2-amine]	–	–	–	–	fold induction at 1 µM [4]: 10 to 100; fold induction at 10 µM [4]: 10 to 100
Cc1cc(Nc2ncn(-c3ccccc3)n2)cc(Nc2nccs2)c1 [Compound 643, 5-methyl-N3-(1-phenyl-1,2,4-triazol-3-yl)-N1-thiazol-2-yl-benzene-1,3-diamine]	–	–	–	–	fold induction at 1 µM [4]: 10 to 100; fold induction at 10 µM [4]: ≤ 1
Cc1cc(Nc2ncn(-c3cc(F)cc(F)c3)n2)cc(N2CCC3OCC3C2)c1 (stereo not drawn) [Compound 1057, 1-(3,5-difluorophenyl)-N-[3-methyl-5-(8-oxa-4-azabicyclo[4.2.0]octan-4-yl)phenyl]-1,2,4-triazol-3-amine]	1 to 10	≤ 1	–	–	–
Cc1cc(Nc2ncn(-c3ccc(F)c(F)c3)n2)cc(OCC2CCOC2)c1 (stereo not drawn) [Compound 865, 1-(3,4-difluorophenyl)-N-[3-methyl-5-(tetrahydrofuran-3-ylmethoxy)phenyl]-1,2,4-triazol-3-amine]	1 to 10	1 to 10	–	–	–
Cc1cc(Nc2ncn(-c3ccccc3)n2)cc(C2CCCN(C)C2)c1 (stereo not drawn) [Compound 60, N-[3-methyl-5-(1-methyl-3-piperidyl)phenyl]-1-phenyl-1,2,4-triazol-3-amine]	–	–	1000 to 10000	≤ 1	–
Cc1cc(Nc2ncn(-c3cc(F)cc(F)c3)n2)cc(N2CCN(CCO)CC2)c1 [Compound 1036, 2-[4-[3-[[1-(3,5-difluorophenyl)-1,2,4-triazol-3-yl]amino]-5-methyl-phenyl]piperazin-1-yl]ethanol]	≤ 1	≤ 1	–	–	–
COCCN1CC(Nc2cc(C)cc(Nc3ncn(-c4cc(F)cc(F)c4)n3)c2)CC1=O (stereo not drawn) [Compound 934, 4-[3-[[1-(3,5-difluorophenyl)-1,2,4-triazol-3-yl]amino]-5-methyl-anilino]-1-(2-methoxyethyl)pyrrolidin-2-one]	10 to 100	≤ 1	–	–	–
Cc1cc(NCC2(N3CCOCC3)CC2)cc(Nc2ncn(-c3cc(F)cc(F)c3)n2)c1 [Compound 951, N1-[1-(3,5-difluorophenyl)-1,2,4-triazol-3-yl]-5-methyl-N3-[(1-morpholinocyclopropyl)methyl]benzene-1,3-diamine]	1 to 10	≤ 1	–	–	–
Cc1cc(Nc2ncn(-c3ccccc3)n2)cc(NC2CCN(C3COC3)C2)c1 (stereo not drawn) [Compound 309, 5-methyl-N1-[1-(oxetan-3-yl)pyrrolidin-3-yl]-N3-(1-phenyl-1,2,4-triazol-3-yl)benzene-1,3-diamine]	–	–	1000 to 10000	≤ 1	–
CC1CCN(c2cc(Nc3ncn(-c4ccccc4)n3)cc(C3CC3)n2)CC1 [Compound 44, 2-cyclopropyl-6-(4-methyl-1-piperidyl)-N-(1-phenyl-1,2,4-triazol-3-yl)pyridin-4-amine]	–	–	1000 to 10000	1000 to 10000	–
Cc1cc(Nc2ncn(-c3cc(F)cc(F)c3)n2)cc([C@H]2CCN(C3COC3)C2)c1 (single isomer, unassigned) [Compound 473]	–	–	–	–	fold induction at 1 µM [4]: 100 to 1000; fold induction at 10 µM [4]: 1 to 10
